We go through 8 compounds from ChEMBL document CHEMBL1133844, “2-Benzyl-3,4-iminobutanoic acid as inhibitor of carboxypeptidase A” (Bioorg Med Chem Lett, 2001).

pKi: −log10 of the molar value.

By pKi is commonly meant the negative decadic logarithm of the Ki, by convention in mol/L. Read a low pKi as a high Ki.

This test in a line: The compound was tested for the inhibition of Carboxypeptidase A.
In turn, `O=C(O)C(Cc1ccccc1)c1c[nH]cn1` (racemic) gave a pKi of 6.10.

Compound `O=C(O)[C@@H](Cc1ccccc1)C1CC1` showed a pKi of 3.19.

Compound `O=C(O)[C@@H](Cc1ccccc1)[C@@H]1CN1` (single isomer, unassigned) showed a pKi of 3.29.

Take `O=C(O)[C@@H](Cc1ccccc1)[C@H]1CN1`: the pKi was 3.92.

On to `O=C(O)[C@H](Cc1ccccc1)[C@@H]1CN1`, for which the pKi was 4.46.

Regarding `O=C(O)C(Cc1ccccc1)C1CC1` (racemic), the pKi was 3.10.

Consider `O=C(O)[C@H](Cc1ccccc1)[C@H]1CN1` (single isomer, unassigned), for which the negative logarithm of the Ki (pKi) was 3.64.

`O=C(O)[C@H](Cc1ccccc1)C1CC1` gave a pKi of 3.10.
